Assay results: US20260306429A1, “COMPOSITION FOR REDUCING METHANE PRODUCTION AND IMPROVING NITROGEN UTILIZATION EFFICIENCY OF RUMINANT ANIMALS COMPRISING HALOACETAMIDE AS ACTIVE INGREDIENT” (CHUNGANG UNIVERSITY INDUSTRY ACADEMIC COOPERATION FOUNDATION, priority 2024, published 2026)

How the values were obtained:
[1] = in words; cited from earlier work
Fibrobacter succinogenes = assay: qPCR absolute quantification of Fibrobacter succinogenes after in vitro rumen incubation; type: cell-based; settings: 0.2 mmol/L, 24 h
Method: (§1) Rumen fluid was sampled from Hanwoo cows at the Nonghyup Research Farm in Anseong, Gyeonggi Province, and mixed with buffer at a ratio of 1:2 within 1 hour of sampling. Oat hay was used as the forage, and pelleted feed for the middle fattening period was used as the concentrate. After grinding, the forage and concentrate were mixed at a ratio of 1:1 after passing through a 1-mm screen. 50 ml of culture medium was dispensed into 0.5 g of dry matter, and the control group and the five experimental groups (acrylamide, chloroacetamide, glycolamide, iodoacetamide, and propionamide) were each incubated for 24 hours with five replicates. The control group was incubated in 50 mL of culture medium, whereas the experimental groups were incubated in 49.9 mL of culture medium plus 0.1 mL of deionized water. For the five experimental groups, the supplementation level of each amide was set to 0.2 mmol/L (final concentration), and the amounts added were 1.4216 mg/g for acrylamide, 1.8702 mg/g for 2-chloroacetamide, 1.4618 mg/g for propionamide, 1.5014 mg/g for glycolamide, and 3.6992 mg/g for iodoacetamide.
(§2) Gas pressure was measured at 0, 3, 6, 12, and 24 hours (gas collection intervals), and the gas released during each measurement was collected to determine the total gas production and methane production up to the final 24 hours. After completing the 24-hour incubation, pH, ammonia nitrogen (NH3—N), dry matter digestibility, neutral detergent fiber digestibility, volatile fatty acids (VFA), and the microbiome were analyzed.
(§3) Metagenomic DNA was extracted using the RBB+C method, followed by qPCR analysis and microbiome analysis. Microbial functions were predicted using PICRUSt2. Taxonomic drivers of differentially enriched MetaCyc pathways were identified using Fish Taco (Functional Shifts' Taxonomic Contributor).
(§4) Data conforming to normal distribution and homogeneity of variance were analyzed using the GLIMMIX procedure of SAS and Tukey's HSD test. […] Differences in the overall bacteriota and their functional profiles were analyzed using PERMANOVA. Differentially abundant microbial biomarkers were identified using multivariable association analysis with the MaAsLin2 R package, based on relatively abundant bacterial taxa and predicted microbial functions.
(§5) For the control group and the five experimental groups (acrylamide, chloroacetamide, glycolamide, iodoacetamide, and propionamide), the effects of the amide compounds on the absolute quantification of total bacteria, methanogens, protozoa, and specific cellulolytic bacterial species (Fibrobacter succinogenes, Ruminococcus flavefaciens, Ruminococcus albus, and Prevotella ruminicola) are presented in Table 3 below as quantitative real-time PCR data.

Total protozoa = assay: qPCR absolute quantification of protozoa after in vitro rumen incubation; type: cell-based, rumen fluid of Hanwoo cows; settings: 0.2 mmol/L, 24 h
Method: as §1, §2, §3, §4, §5

rumen microbiome = assay: Alpha-diversity measurements of the rumen microbiome; type: cell-based, rumen fluid of Hanwoo cows; settings: 0.2 mmol/L, 24 h
Method: as §1, §2, §3, §4
The alpha-diversity measurements for the control group and the five experimental groups (acrylamide, chloroacetamide, glycolamide, iodoacetamide, and propionamide) are presented in Table 4 below.

Total methanogen = assay: qPCR absolute quantification of methanogens after in vitro rumen incubation; type: cell-based, rumen fluid of Hanwoo cows; settings: 0.2 mmol/L, 24 h
Method: as §1, §2, §3, §4, §5

[2] = test system: Ruminococcus flavefaciens; assay: qPCR absolute quantification of Ruminococcus flavefaciens after in vitro rumen incubation; type: cell-based; settings: 0.2 mmol/L, 24 h
Method: as §1, §2, §3, §4, §5

Prevotella ruminicola = assay: qPCR absolute quantification of Prevotella ruminicola after in vitro rumen incubation; type: cell-based; settings: 0.2 mmol/L, 24 h
Method: as §1, §2, §3, §4, §5

Ruminococcus albus = assay: qPCR absolute quantification of Ruminococcus albus after in vitro rumen incubation; type: cell-based; settings: 0.2 mmol/L, 24 h
Method: as §1, §2, §3, §4, §5

rumen fluid = assay: In vitro incubation of rumen fluid: digestibility, fermentation characteristics, gas and methane production, VFA; type: cell-based, Hanwoo cows; settings: 0.2 mmol/L; for CH4 (methane production per gram of degraded dry matter) / CH4 (methane production) / TGP (total gas production): up to 24 h
Method: as §1, §2, §4

Total bacteria = assay: qPCR absolute quantification of total bacteria after in vitro rumen incubation; type: cell-based, rumen fluid of Hanwoo cows; settings: 0.2 mmol/L, 24 h
Method: as §1, §2, §3, §4, §5

rumen microbiota = assay: Differentially abundant genera and species in response to haloacetamide treatment; taxonomic drivers; type: cell-based, rumen fluid of Hanwoo cows; settings: in words
Method: Rumen fluid was sampled from Hanwoo cows at the Nonghyup Research Farm in Anseong, Gyeonggi Province, and mixed with buffer at a ratio of 1:2 within 1 hour of sampling. Oat hay was used as the forage, and pelleted feed for the middle fattening period was used as the concentrate. After grinding, the forage and concentrate were mixed at a ratio of 1:1 after passing through a 1-mm screen. 50 ml of culture medium was dispensed into 0.5 g of dry matter, and the control group and the five experimental groups (acrylamide, chloroacetamide, glycolamide, iodoacetamide, and propionamide) were each incubated for 24 hours with five replicates. […]
as §2, with “analyzed. […]” for “analyzed.”
Data conforming to normal distribution and homogeneity of variance were analyzed using the GLIMMIX procedure of SAS and Tukey's HSD test. […] Differences in the overall bacteriota and their functional profiles were analyzed using PERMANOVA. […]

Structure (SMILES) | Fibrobacter succinogenes (absolute quantification, qPCR) (Fibrobacter succinogenes) | Total protozoa (absolute quantification, qPCR) (Total protozoa) | Chao1 (rumen microbiome) | Evenness (rumen microbiome) | Observed features (rumen microbiome) | Shannon (rumen microbiome) | Simpson (rumen microbiome) | Total methanogen (absolute quantification, qPCR) (Total methanogen) | Ruminococcus flavefaciens (absolute quantification, qPCR) [2] | Prevotella ruminicola (absolute quantification, qPCR) (Prevotella ruminicola) | Ruminococcus albus (absolute quantification, qPCR) (Ruminococcus albus) | A:P ratio (acetate:propionate ratio) (rumen fluid; 24 h) | DMD (dry matter digestibility) (rumen fluid; 24 h) | NDFD (neutral detergent fiber digestibility) (rumen fluid; 24 h) | NH3—N (ammonia nitrogen) (rumen fluid; 24 h) | pH (rumen fluid; 24 h) | Acetate (rumen fluid; 24 h, VFA composition) | Butyrate (rumen fluid; 24 h, VFA composition) | Isobutyrate (rumen fluid; 24 h, VFA composition) [%] | Isovalerate (rumen fluid; 24 h, VFA composition) | further results
O=[N+]([O-])OCCCO [3-NOP, 3-nitrooxypropanol] | – | – | – | – | – | – | – | – | – | – | – | – | – | – | – | – | – | – | – | – | toxicity / safety [1]: issues related to residues in the animal body and safety
C=CC(N)=O [AA, acrylamide] | 9.39^C | 9.78 | 284.8^B | 0.8823^B | 284.8^B | 7.1896^B | 0.9883^B | 8.38^A | 8.31^B | 9.44^C | 7.77^B | 3.03^A | 78.14^AB % | 42.04^B % | 16.61^A mg/dL | 6.21 | 61.85^A % | 13.87^B % | 0.88 | 1.23^ABC % | Propionate (rumen fluid; 24 h, VFA composition): 20.42^C %; Valerate (rumen fluid; 24 h, VFA composition): 1.76^B %; Acetate (rumen fluid; 24 h, concentration): 43.81^A mM; Butyrate (rumen fluid; 24 h, concentration): 9.82^AB mM; Isobutyrate (rumen fluid; 24 h, concentration): 0.62^A mM; Isovalerate (rumen fluid; 24 h, concentration): 0.87^A mM; Propionate (rumen fluid; 24 h, concentration): 14.45^AB mM; Total VFA (total volatile fatty acids) (rumen fluid; 24 h, concentration): 70.82^A mM; Valerate (rumen fluid; 24 h, concentration): 1.24 mM; CH4 (methane production per gram of degraded dry matter) (rumen fluid): 29.06^A mL/g dDM; CH4 (methane production) (rumen fluid): 11.35^A mL; TGP (total gas production) (rumen fluid): 145.83^A mL; Total bacteria (absolute quantification, qPCR) (Total bacteria): 10.30^AB
NC(=O)CCl [CLA, 2-chloroacetamide] | 9.54^B | 9.77 | 382.3^AB | 0.8847^AB | 380.8^AB | 7.5719^AB | 0.9903^AB | 8.05^AB | 8.27^B | 9.58^B | 7.96^A | 2.34^B | 77.82^AB % | 43.61^B % | 13.90^B mg/dL | 6.19 | 55.96^B % | 16.30^A % | 0.80 | 1.09^BC % | differentially abundant bacteria (rumen microbiota): increases bacteria belonging to the genera Fibrobacter, Anaeroplasma, Treponema, and Succinivibrio, and the species Ruminococcus albus; Propionate (rumen fluid; 24 h, VFA composition): 23.89^B %; Valerate (rumen fluid; 24 h, VFA composition): 1.95^AB %; Acetate (rumen fluid; 24 h, concentration): 35.41^BC mM; Butyrate (rumen fluid; 24 h, concentration): 10.25^A mM; Isobutyrate (rumen fluid; 24 h, concentration): 0.50^BC mM; Isovalerate (rumen fluid; 24 h, concentration): 0.68^B mM; Propionate (rumen fluid; 24 h, concentration): 15.07^AB mM; Total VFA (total volatile fatty acids) (rumen fluid; 24 h, concentration): 63.14^AB mM; Valerate (rumen fluid; 24 h, concentration): 1.22 mM; methane-reducing effects (rumen fluid; 24 h, in words, from Table 1): excellent methane-reducing effects; CH4 (methane production per gram of degraded dry matter) (rumen fluid): 10.71^C mL/g dDM; CH4 (methane production) (rumen fluid): 4.17^C mL; TGP (total gas production) (rumen fluid): 134.49^B mL; Total bacteria (absolute quantification, qPCR) (Total bacteria): 10.28^B
